Laboratory results as given in US20070015823A1, “Ambruticin VS compounds” (priority 2004, published 2007).
Converted amounts (≈) assume the structure as drawn. Read-outs that look alike come from different tables or passages of the source.

Experiments:
C. posadasii = assay: microbe, parasite or virus in culture; type: cell-based, Coccidioides posadasii; conditions: for MIC: Coccidioides posadasii
C. immitis = assay: microbe, parasite or virus in culture; type: cell-based, Coccidioides immitis; conditions: for MIC: Coccidioides immitis
Histoplasma capsulatum = type: cell-based
Candida albicans = conditions: 50% growth inhibition, range = minimum and maximum of multiple assays; for MIC C. albicans 24433: strain 24433; for MIC C. albicans 90028: strain 90028
Fusarium solani = assay: Broth microdilution antifungal susceptibility, NCCLS M38-A; type: cell-based; conditions: strain 96-1; 50% growth inhibition; range = minimum and maximum of multiple assays
S. apiospermum = assay: as above; type: cell-based, Scedosporium apiospermum
A. fumigatus ATCC 204305 = assay: as above; type: cell-based, Aspergillus fumigatus; conditions: minimal concentration inhibiting >95% growth; average of at least two assays (except I-l and I-x)
Blastomyces dermatitidis = assay: as above; type: cell-based
A. flavus ATCC 204304 = assay: as above; type: cell-based, Aspergillus flavus; conditions: minimal concentration inhibiting >95% growth; average of at least two assays (except I-l and I-x)
[1] = system: Trichophyton interdigitale; assay: Dermatophyte broth microdilution, NCCLS M38-A; type: cell-based
Epidermophyton floccosum = assay: Dermatophyte broth microdilution, NCCLS M38-A; type: cell-based
Trichophyton rubrum = assay: Dermatophyte broth microdilution, NCCLS M38-A; type: cell-based
Cryptococcus neoformans = assay: Broth microdilution antifungal susceptibility, NCCLS M38-A; conditions: 50% growth inhibition, range = minimum and maximum of multiple assays; for MIC C. neoformans 97-14: strain 97-14; for MIC C. neoformans 11239: strain 11239; for MIC C. neoformans 11240: strain 11240
Microsporum gypseum = assay: Dermatophyte broth microdilution, NCCLS M38-A; type: cell-based
Microsporum canis = assay: Dermatophyte broth microdilution, NCCLS M38-A; type: cell-based
[2] = system: Trichophyton mentagrophytes; assay: Dermatophyte broth microdilution, NCCLS M38-A; type: cell-based

| Molecule | MIC H. capsulatum G217B (Histoplasma capsulatum) [µg/mL] | MIC H. capsulatum GS20 (Histoplasma capsulatum) [µg/mL] | MIC C. albicans 24433 (Candida albicans) [µg/mL] | MIC C. albicans 90028 (Candida albicans) [µg/mL] | MIC F. solani 96-1 (Fusarium solani) [µg/mL] | MIC S. apiospermum 94-54 (S. apiospermum) [µg/mL] | MIC S. apiospermum 98-38 (S. apiospermum) [µg/mL] | MIC S. apiospermum 98-89 (S. apiospermum) [µg/mL] | MIC0 A. fumigatus ATCC 204305 (A. fumigatus ATCC 204305) [µg/mL] | MIC B. dermatitidis Gu (Blastomyces dermatitidis) [µg/mL] | MIC0 A. flavus ATCC 204304 (A. flavus ATCC 204304) [µg/mL] | MIC0 Ti [1] [µg/mL] | MIC0 Ef (Epidermophyton floccosum) [µg/mL] | MIC0 Tr (Trichophyton rubrum) [µg/mL] | MIC C. neoformans 97-14 (Cryptococcus neoformans) [µg/mL] | MIC C. neoformans 11239 (Cryptococcus neoformans) [µg/mL] | MIC C. neoformans 11240 (Cryptococcus neoformans) [µg/mL] | MIC0 Mg (Microsporum gypseum) [µg/mL] | MIC0 Mc (Microsporum canis) [µg/mL] | MIC0 Tm [2] [µg/mL] | also measured |
| --- | --- | --- | --- | --- | --- | --- | --- | --- | --- | --- | --- | --- | --- | --- | --- | --- | --- | --- | --- | --- | --- |
| OC(Cn1cncn1)(Cn1cncn1)c1ccc(F)cc1F [Fluconazole] | – | – | – | – | – | – | – | – | – | – | – | – | – | – | – | – | – | – | – | – | MIC (C. posadasii; read-out: MIC C. posadasii C735): 16 µg/mL (≈ 52.2 µM); MIC (C. posadasii; read-out: MIC C. posadasii RMSCC 2127): 16 µg/mL (≈ 52.2 µM); MIC (C. posadasii; read-out: MIC C. posadasii Silveria): 4 µg/mL (≈ 13.1 µM); MIC (C. immitis; read-out: MIC C. immitis RMS 2281): 16 µg/mL (≈ 52.2 µM); MIC (C. immitis; read-out: MIC C. immitis RS): 16 µg/mL (≈ 52.2 µM); MIC (C. immitis; read-out: MIC C. immitis S46): 16 µg/mL (≈ 52.2 µM) |
| CC[C@H]1O[C@@H](/C(C)=C/[C@H](C)/C=C/[C@H]2[C@@H](C)[C@@H]2/C=C/[C@@H]2O[C@H](CCO)C[C@H](N(C)C)[C@H]2O)CC=C1C [I-ff, (5S,6R)-5-(dimethylamino)polyangi-1,6-diol] | <0.19 | <0.19 | 32 (≈ 65.6 µM) | 32 (≈ 65.6 µM) | 8 to 16 | 32 (≈ 65.6 µM) | 16 (≈ 32.8 µM) | 0.5 (≈ 1.03 µM) | 2.07 | >12.5 | 1.76 | – | – | – | – | – | – | – | – | – | MIC0 Blastomyces dermatitidis 04-2167 (Blastomyces dermatitidis): 0.06 µg/mL; MIC0 Blastomyces dermatitidis 04-2508 (Blastomyces dermatitidis): 0.06 µg/mL; MIC0 Blastomyces dermatitidis 04-2915 (Blastomyces dermatitidis): 0.06 µg/mL; MIC0 Blastomyces dermatitidis 05-106 (Blastomyces dermatitidis): 0.06 µg/mL; MIC0 Blastomyces dermatitidis 05-186 (Blastomyces dermatitidis): 0.06 µg/mL; MIC0 Blastomyces dermatitidis 05-1391 (Blastomyces dermatitidis): 0.06 µg/mL; MIC0 Blastomyces dermatitidis 05-1707 (Blastomyces dermatitidis): ≦0.015 μg/mL; MIC0 Blastomyces dermatitidis 05-1820 (Blastomyces dermatitidis): 0.03 µg/mL; MIC0 Blastomyces dermatitidis 05-1829 (Blastomyces dermatitidis): 0.06 µg/mL; MIC0 Blastomyces dermatitidis 05-2020 (Blastomyces dermatitidis): 0.06 µg/mL; MIC0 Blastomyces dermatitidis R-3529 (Blastomyces dermatitidis): 0.03 µg/mL; MIC0 Blastomyces dermatitidis R-35629 (Blastomyces dermatitidis): 0.06 µg/mL; MIC B. dermatitidis Kr (Blastomyces dermatitidis): >12.5 µg/mL; MIC B. dermatitidis V (Blastomyces dermatitidis): >12.5 µg/mL |
| CC[C@H]1O[C@@H](/C(C)=C/[C@H](C)/C=C/[C@H]2[C@@H](C)[C@@H]2/C=C/[C@@H]2O[C@H](CC(N)=O)C[C@H](N(C)C)[C@H]2O)CC=C1C [I-hh, (5S,6R)-5-(dimethylamino)polyangiamide] | – | – | 32 (≈ 63.9 µM) | 32 (≈ 63.9 µM) | 16 (≈ 32 µM) | 32 (≈ 63.9 µM) | 32 (≈ 63.9 µM) | 1 to 2 | 1 | – | 2 | 3.17 | 2.82 | 2.51 | 1 (≈ 2 µM) | 1 (≈ 2 µM) | 1 (≈ 2 µM) | 1.25 | 0.7 | 2.82 | – |
| CCOC(=O)O[C@H]1[C@H](/C=C/[C@H]2[C@H](C)[C@@H]2/C=C/[C@@H](C)/C=C(\C)[C@H]2CC=C(C)[C@@H](CC)O2)O[C@H](CC(N)=O)C[C@@H]1N(C)C [I-ii, (5S,6R)-5-(dimethylamino)-6-ethoxycarbonyloxy-polyangiamide] | – | – | – | – | – | – | – | – | 1 | – | 1 | 1.58 | 1 | 1.58 | 0.5 to 1 | 0.25 (≈ 0.436 µM) | 0.25 to 0.5 | 1 | 0.5 | 1.41 | MIC C. posadasii C735 (C. posadasii): 0.5 µg/mL (≈ 0.873 µM); MIC C. posadasii RMSCC 2127 (C. posadasii): 0.25 µg/mL (≈ 0.436 µM); MIC C. posadasii Silveria (C. posadasii): 0.5 µg/mL (≈ 0.873 µM); MIC C. immitis RMS 2281 (C. immitis): 0.125 µg/mL (≈ 0.218 µM); MIC C. immitis RS (C. immitis): 0.25 µg/mL (≈ 0.436 µM); MIC C. immitis S46 (C. immitis): 0.25 µg/mL (≈ 0.436 µM) |
| CC[C@H]1O[C@@H](/C(C)=C/[C@H](C)/C=C/[C@H]2[C@@H](C)[C@@H]2/C=C/[C@@H]2O[C@H](CC(=O)O)C[C@H](N(C)CCO)[C@H]2O)CC=C1C [I-n, (5S,6R)-5-(N-(2-hydroxyethyl)-methylamino)-6-hydroxypolyangioic acid] | <0.19 | <0.19 | >32 | >32 | >16 | >16 | >16 | 0.125 to 0.25 | 1.4 | 6.25 (≈ 11.8 µM) | 2 | 1.25 | 2 | 2.51 | 0.25 (≈ 0.47 µM) | 0.125 to 0.25 | 0.125 to 0.25 | 1.99 | 2.82 | 8 | MIC B. dermatitidis Kr (Blastomyces dermatitidis): >12.5 µg/mL; MIC B. dermatitidis V (Blastomyces dermatitidis): >12.5 µg/mL |
| CCCCN(C)[C@H]1C[C@@H](CC(=O)O)O[C@@H](/C=C/[C@H]2[C@H](C)[C@@H]2/C=C/[C@@H](C)/C=C(\C)[C@H]2CC=C(C)[C@@H](CC)O2)[C@@H]1O [I-u, (5S,6R)-5-(N-butyl-methylamino)-6-hydroxypolyangioic acid] | <0.19 | <0.19 | – | – | – | – | – | – | 4.25 | >12.5 | 4.5 | 3.17 | 2.82 | 3.17 | 1 (≈ 1.84 µM) | 2 (≈ 3.68 µM) | 2 (≈ 3.68 µM) | 4 | 5.65 | 11.31 | MIC B. dermatitidis Kr (Blastomyces dermatitidis): >12.5 µg/mL; MIC B. dermatitidis V (Blastomyces dermatitidis): >12.5 µg/mL |
| CC[C@H]1O[C@@H](/C(C)=C/[C@H](C)/C=C/[C@H]2[C@@H](C)[C@@H]2/C=C/[C@@H]2O[C@H](CC(=O)O)C[C@H](N(C)Cc3cccnc3)[C@H]2O)CC=C1C [I-w, (5S,6R)-5-(N-(3-pyridyl)methyl-methylamino)-6-hydroxypolyangioic acid] | – | – | >32 | >32 | >16 | >16 | >16 | 2 (≈ 3.46 µM) | 4.25 | – | 4 | – | – | – | 1 (≈ 1.73 µM) | 0.5 (≈ 0.864 µM) | 0.5 to 1 | – | – | – | – |
| (5S,6R)-5-(N-(4-imidazolyl)methyl-methylamino)-6-hydroxypolyangioic acid [I-h] | – | – | >32 | >32 | >16 | >16 | >16 | 0.125 to 0.25 | 2.1 | – | 1.0 | – | – | – | 0.5 | 0.25 | 0.25 | – | – | – | – |
